Assay results: US6737383B1, “Herbicidal oxadiazolidines” (priority 1999, dated 2004)

Key:
bedstraw = test: Test B pre/postemergence bedstraw; type: in vivo, Galium aparine; settings: Preemergence; for Bedstraw plant response rating: scale 0 to 10, 0 is no effect, 10 is complete control
In short: (§1)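 Test chemicals in a non-phytotoxic solvent mixture with surfactant were sprayed preemergence onto planted seeds and postemergence onto plants 2 to 18 cm tall (1- to 4-leaf stage). After twelve to sixteen days in a greenhouse, injury was visually rated against untreated controls from 0 (no effect) to 10 (complete control).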

blackgrass = test: Test B pre/postemergence blackgrass; type: in vivo, Alopecurus myosuroides
In short: as §1

surinam grass = test: Test B pre/postemergence surinam grass; type: in vivo, Brachiaria decumbens
In short: as §1

corn = test: Test B pre/postemergence corn; type: in vivo, Zea mays
In short: as §1

crabgrass = test: Test B pre/postemergence crabgrass; type: in vivo, Digitaria sanguinalis
In short: as §1

giant foxtail = test: Test B pre/postemergence giant foxtail; type: in vivo, Setaria faberii
In short: as §1

morningglory = test: Test B pre/postemergence morningglory; type: in vivo, Ipomoea hederacea
In short: as §1

pigweed = test: Test B pre/postemergence pigweed; type: in vivo, Amaranthus retroflexus
In short: as §1

rape = test: Test B pre/postemergence rape; type: in vivo, Brassica napus
In short: as §1

sugar beet = test: Test B pre/postemergence sugar beet; type: in vivo, Beta vulgaris
In short: as §1

wheat = test: Test B pre/postemergence wheat; type: in vivo, Triticum aestivum
In short: as §1

wild oat = test: Test B pre/postemergence wild oat; type: in vivo, Avena fatua
In short: as §1

purple nutsedge = test: Test B pre/postemergence purple nutsedge; type: in vivo, Cyperus rotundus
In short: as §1

rice = test: Test B flood test rice; type: in vivo, Oryza sativa
In short: (§2)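 Each value is a visual injury score relative to controls, with 10 meaning complete control and 0 no effect. Evaluation took place twelve to sixteen days after the 2-leaf-stage plants were treated and kept in the greenhouse.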

smallflower flatsedge = test: Test B flood test smallflower flatsedge; type: in vivo, Cyperus difformis
In short: as §2

bamyardgrass = test: Test B flood test barnyardgrass; type: in vivo, Echinochloa crus-galli
In short: as §2

[1] = Postemergence, Rate 62 g/ha, scale of 0 to 10, 0 is no effect, 10 is complete control
[2] = Postemergence, Rate 125 g/ha, scale 0 to 10, 0 is no effect, 10 is complete control
[3] = Postemergence, Rate 500 g/ha, scale 0 to 10, 0 is no effect, 10 is complete control
[4] = Preemergence, Rate 62 g/ha, scale of 0 to 10 where 0 is no effect and 10 is complete control
[5] = Preemergence, Rate 125 g/ha, scale 0 to 10, 0 is no effect, 10 is complete control
[6] = Preemergence, Rate 500 g/ha, scale of 0 to 10 where 0 is no effect and 10 is complete control
[7] = Rate 250 g/ha, Postemergence, scale of 0 to 10 where 0 is no effect and 10 is complete control
[8] = Rate 62 g/ha, flood test species, Pre-emergence, visual evaluation after twelve to sixteen days
[9] = Rate 125 g/ha, under heading Pre-emergence, flood test species, visual evaluation after twelve to sixteen days
[10] = Rate 250 g/ha, Pre-emergence (flood test species), scale 0 to 10, 0 is no effect, 10 is complete control
[11] = Rate 500 g/ha, Pre-emergence section of Table B, 0 to 10 scale (0 no effect, 10 complete control)

SMILES: CC(C)N(C(=O)n1oc(=O)n(CC2CCC2)c1=O)c1ccc(F)cc1F [Compound 521]
- Plant response rating, Bedstraw (bedstraw; Rate 62 g/ha, scale of 0 to 10 where 0 is no effect and 10 is complete control): 0
- Bedstraw plant response rating (bedstraw; Rate 125 g/ha): 0
- Bedstraw plant response rating (0 to 10 scale) (bedstraw; Rate 250 g/ha): 0
- Bedstraw plant response rating (bedstraw; Rate 500 g/ha): 0
- Blackgrass plant response rating (blackgrass; [1]): 2
- Blackgrass plant response rating (blackgrass; [2]): 2
- Plant response rating, Blackgrass (blackgrass; [3]): 9
- Plant response rating, Blackgrass (blackgrass; [4]): 0
- Blackgrass plant response rating (blackgrass; [5]): 0
- Blackgrass plant response rating (0 to 10 scale) (blackgrass; Preemergence, Rate 250 g/ha): 0
- Blackgrass plant response rating (blackgrass; [6]): 3
- Plant response rating, Blackgrass (blackgrass; [7]): 7
- B. signalgrass plant response rating (surinam grass; [1]): 0
- B. signalgrass plant response rating (surinam grass; [2]): 0
- Plant response rating, B. signalgrass (surinam grass; [3]): 3
- Plant response rating, B. signalgrass (surinam grass; [4]): 0
- B. signalgrass plant response rating (surinam grass; [5]): 0
- B. signalgrass plant response rating (0 to 10 scale, 0 is no effect, 10 is complete control) (surinam grass; Preemergence, Rate 250 g/ha): 0
- B. signalgrass plant response rating (surinam grass; Preemergence, Rate 500 g/ha, scale 0 to 10, 0 is no effect, 10 is complete control): 9
- Plant response rating, B. signalgrass (surinam grass; [7]): 0
- Corn plant response rating (corn; [1]): 0
- Corn plant response rating (corn; [2]): 0
- Plant response rating, Corn (corn; [3]): 0
- Plant response rating, Corn (corn; [4]): 0
- Corn plant response rating (corn; [5]): 0
- Corn plant response rating (0 to 10 scale) (corn; Preemergence, Rate 250 g/ha): 0
- Corn plant response rating (corn; [6]): 3
- Plant response rating, Corn (corn; [7]): 0
- Crabgrass plant response rating (crabgrass; [1]): 2
- Crabgrass plant response rating (crabgrass; [2]): 4
- Plant response rating, Crabgrass (crabgrass; [3]): 10
- Plant response rating, Crabgrass (crabgrass; [4]): 10
- Crabgrass plant response rating (crabgrass; [5]): 10
- Crabgrass plant response rating (0 to 10 scale) (crabgrass; Preemergence, Rate 250 g/ha): 10
- Crabgrass plant response rating (crabgrass; [6]): 10
- Plant response rating, Crabgrass (crabgrass; [7]): 10
- Giant foxtail plant response rating (giant foxtail; [1]): 4
- Giant foxtail plant response rating (giant foxtail; [2]): 8
- Plant response rating, Giant foxtail (giant foxtail; [3]): 9
- Plant response rating, Giant foxtail (giant foxtail; [4]): 10
- Giant foxtail plant response rating (giant foxtail; [5]): 10
- Giant foxtail plant response rating (0 to 10 scale) (giant foxtail; Preemergence, Rate 250 g/ha): 10
- Giant foxtail plant response rating (giant foxtail; [6]): 10
- Plant response rating, Giant foxtail (giant foxtail; [7]): 9
- Morningglory plant response rating (morningglory; [1]): 3
- Morningglory plant response rating (morningglory; [2]): 4
- Plant response rating, Morningglory (morningglory; [3]): 5
- Plant response rating, Morningglory (morningglory; [4]): 0
- Morningglory plant response rating (morningglory; [5]): 0
- Morningglory plant response rating (0 to 10 scale) (morningglory; Preemergence, Rate 250 g/ha): 0
- Morningglory plant response rating (morningglory; [6]): 0
- Plant response rating, Morningglory (morningglory; [7]): 3
- Redroot pigweed plant response rating (pigweed; [1]): 0
- Redroot pigweed plant response rating (pigweed; [2]): 0
- Plant response rating, Redroot pigweed (pigweed; [3]): 4
- Plant response rating, Redroot pigweed (pigweed; [4]): 0
- Redroot pigweed plant response rating (pigweed; [5]): 0
- Redroot pigweed plant response rating (0 to 10 scale) (pigweed; Preemergence, Rate 250 g/ha): 0
- Redroot pigweed plant response rating (pigweed; [6]): 0
- Plant response rating, Redroot pigweed (pigweed; [7]): 0
- Rape plant response rating (rape; [1]): 0
- Rape plant response rating (rape; [2]): 0
- Plant response rating, Rape (rape; [3]): 3
- Plant response rating, Rape (rape; [4]): 0
- Rape plant response rating (rape; [5]): 0
- Rape plant response rating (0 to 10 scale) (rape; Preemergence, Rate 250 g/ha): 2
- Rape plant response rating (rape; [6]): 2
- Plant response rating, Rape (rape; [7]): 2
- Sugarbeets plant response rating (sugar beet; [1]): 0
- Sugarbeets plant response rating (sugar beet; [2]): 0
- Plant response rating, Sugarbeets (sugar beet; [3]): 4
- Plant response rating, Sugarbeets (sugar beet; [4]): 0
- Sugarbeets plant response rating (sugar beet; [5]): 0
- Sugarbeets plant response rating (0 to 10 scale) (sugar beet; Preemergence, Rate 250 g/ha): 3
- Sugarbeets plant response rating (sugar beet; [6]): 3
- Plant response rating, Sugarbeets (sugar beet; [7]): 0
- Wheat plant response rating (wheat; [1]): 0
- Wheat plant response rating (wheat; [2]): 0
- Plant response rating, Wheat (wheat; [3]): 2
- Plant response rating, Wheat (wheat; [4]): 0
- Wheat plant response rating (wheat; [5]): 0
- Wheat plant response rating (0 to 10 scale) (wheat; Preemergence, Rate 250 g/ha): 0
- Wheat plant response rating (wheat; [6]): 0
- Plant response rating, Wheat (wheat; [7]): 0
- Wild oats plant response rating (wild oat; [1]): 0
- Wild oats plant response rating (wild oat; [2]): 0
- Plant response rating, Wild oats (wild oat; [3]): 2
- Plant response rating, Wild oats (wild oat; [4]): 0
- Wild oats plant response rating (wild oat; [5]): 0
- Wild oats plant response rating (0 to 10 scale) (wild oat; Preemergence, Rate 250 g/ha): 0
- Wild oats plant response rating (wild oat; [6]): 2
- Plant response rating, Wild oats (wild oat; [7]): 0
- Nutsedge plant response rating (purple nutsedge; [1]): 0
- Nutsedge plant response rating (purple nutsedge; [2]): 0
- Plant response rating, Nutsedge (purple nutsedge; [3]): 0
- Plant response rating, Nutsedge (purple nutsedge; [4]): 0
- Nutsedge plant response rating (purple nutsedge; [5]): 0
- Nutsedge plant response rating (0 to 10 scale) (purple nutsedge; Preemergence, Rate 250 g/ha): 0
- Nutsedge plant response rating (purple nutsedge; [6]): 0
- Plant response rating, Nutsedge (purple nutsedge; [7]): 0
- Plant response rating, Rice (0 to 10 scale, 0 is no effect, 10 is complete control) (rice; [8]): 0
- Rice plant response rating (0 to 10 scale, 0 is no effect, 10 is complete control) (rice; [9]): 0
- Rice plant response rating (rice; [10]): 0
- Rice plant response rating (rice; [11]): 0
- Plant response rating, S. Flatsedge (0 to 10 scale, 0 is no effect, 10 is complete control) (smallflower flatsedge; [8]): 0
- S. Flatsedge plant response rating (0 to 10 scale, 0 is no effect, 10 is complete control) (smallflower flatsedge; [9]): 0
- S. Flatsedge plant response rating (smallflower flatsedge; [10]): 0
- S. Flatsedge plant response rating (smallflower flatsedge; [11]): 0
- Plant response rating, Barnyardgrass (0 to 10 scale, 0 is no effect, 10 is complete control) (bamyardgrass; [8]): 0
- Barnyardgrass plant response rating (0 to 10 scale, 0 is no effect, 10 is complete control) (bamyardgrass; [9]): 0
- Barnyardgrass plant response rating (bamyardgrass; [10]): 0
- Barnyardgrass plant response rating (bamyardgrass; [11]): 0
